Values quoted from earlier work in patent US7192954B2, “Monocyclic anilide spirohydantoin CGRP receptor antagonists” (Merck & Co., Inc., priority 2003, dated 2007).
Ends that are not written are not given here.

Legend:
marmoset = conditions: electrical stimulation of the trigeminal ganglion
rats = conditions: electrical stimulation of the dura mater, prior administration
rat = conditions: trigeminal ganglion stimulation

Molecule | increase in facial blood flow (marmoset) | increase of the diameter of the middle meningeal artery (rats) | increase of facial blood flow (rat)
NCCCC[C@H](NC(=O)[C@@H](Cc1cc(Br)c(O)c(Br)c1)NC(=O)N1CCC(N2Cc3ccccc3NC2=O)CC1)C(=O)N1CCN(c2ccncc2)CC1 [BIBN4096BS] | blocked | – | –
CGRP(8–37): a peptide CGRP antagonist (VTHRLAGLLSRSGGVVKNNFVPTNVGSKAF; ends and bridges not checked; UniProt P06881 90-119, looked up, fragment) | – | blocked | inhibited
